Test results as given in patent publication US20250042889A1, “3CLPRO PROTEASE INHIBITOR” (SHANGHAI QILU PHARMACEUTICAL RESEARCH AND DEVELOPMENT …, priority 2021, published 2025).

Molecular target: SARS-COV-2 3CLpro/Mpro protease (Severe acute respiratory syndrome coronavirus 2 (2019-nCoV) (SARS-CoV-2), UniProt P0DTD1)
Experiment: Inhibitory effect on SARS-COV-2 3CLpro/Mpro protease by fluorescence resonance energy transfer
Format: biochemical
Conditions: activity intervals A-D, read-out: IC50 (nM), Inhibition on SARS-CoV-2 3CLpro/Mpro protease

SMILES	IC50 [nM]
CNc1cncc(C(=O)N2C[C@H](Nc3c(C(=O)N4C[C@@H](C)O[C@@H](C)C4)cc(Br)cc3[N+](=O)[O-])C[C@H]2C(=O)NC2CCN(CCOC)CC2(F)F)c1 (single isomer, unassigned) [Compound 453-P1]	50 to 100
O=C(c1cc(Br)cc([N+](=O)[O-])c1N[C@@H]1CCCN(C(=O)C2CNCC(F)(F)C2)C1)N1CCOC(F)(F)C1 (stereo in doubt) [Example 327]	10 to 50
O=C(c1cc(Br)cc([N+](=O)[O-])c1N[C@@H]1CCCN(C(=O)C2CNCC(F)(F)C2)C1)N1CCCC(F)(F)C1 (stereo in doubt) [Example 331]	10 to 50
CNc1cncc(C(=O)N2C[C@H](Nc3c(C(=O)N4C[C@@H](C)O[C@@H](C)C4)cc(Br)cc3[N+](=O)[O-])CC2C#N)c1 (stereo in doubt) [Example 362]	50 to 100
O=C(N[C@H]1CCCC[C@H]1Nc1c(C(=O)N2CC(F)(F)C2)cc(Br)cc1[N+](=O)[O-])c1cncc2ccccc12 [Example 1, N-((1S,2R)-2-((4-bromo-2-(3,3-difluoroazetidin-1-carbonyl)-6-nitrophenyl)amino)cyclohexyl) isoquinolin-4-formamide]	10 to 50
O=C(N[C@H]1CCCC[C@H]1Nc1c(C(=O)N2CCCCC2)cc(Br)cc1[N+](=O)[O-])c1cncc2ccccc12 [Example 2, N-((1S,2R)-2-((4-bromo-2-nitro-6-(piperidin-1-carbonyl)phenyl)amino)cyclohexyl) isoquinolin-4-formamide]	< 10
O=C(N[C@H]1CCCC[C@H]1Nc1c(C(=O)N2CCCC2)cc(Br)cc1[N+](=O)[O-])c1cncc2ccccc12 [Example 3, N-((1S,2R)-2-((4-bromo-2-nitro-6-(pyrrolidin-1-carbonyl)phenyl)amino)cyclohexyl) isoquinolin-4-formamide]	< 10
O=C(c1cccnc1)N1CCC[C@@H](Nc2c(C(=O)N3CCCCC3)cc(Br)cc2[N+](=O)[O-])C1 [Example 4, (R)-(5-bromo-2-((1-nicotinoylpiperidin-3-yl)amino)-3-nitrophenyl)(piperidin-1-yl)methanone]	50 to 100
O=C(c1cncc(Br)c1)N1CCC[C@@H](Nc2c(C(=O)N3CCCCC3)cc(Br)cc2[N+](=O)[O-])C1 [Example 5, (R)-(5-bromo-2-((1-(5-bromonicotinoyl)piperidin-3-yl)amino)-3-nitrophenyl)(piperidin-1-yl)methanone]	< 10
O=C(c1cc(Br)cc([N+](=O)[O-])c1N[C@@H]1CCCN(C(=O)c2cncc3ccccc23)C1)N1CCC(F)(F)CC1 [Example 6, (R)-(5-bromo-2-((1-(isoquinolin-4-carbonyl)piperidin-3-yl)amino)-3-nitrophenyl)(4,4-difluoropiperidin-1-yl)methanone]	< 10
CC1(C)C2CN(C(=O)c3cc(Br)cc([N+](=O)[O-])c3N[C@@H]3CCCN(C(=O)c4cncc5ccccc45)C3)CC21 (stereo partly drawn) [Example 7]	10 to 50
O=C(c1cc(Br)cc([N+](=O)[O-])c1N[C@@H]1CCCN(C(=O)c2cncc3cc(Cl)ccc23)C1)N1CCCCC1 [Example 8, (R)-(5-bromo-2-((1-(7-chloroisoquinolin-4-carbonyl)piperidin-3-yl)amino)-3-nitrophenyl)(piperidin-1-yl)methanone]	< 10
O=C(N[C@H]1CCCC[C@H]1Nc1c(C(=O)N2CCCCC2)cc(Br)cc1C(F)(F)F)c1cncc2ccccc12 [Example 9, N-((1S,2R)-2-((4-Bromo-2-(piperidin-1-carbonyl)-6-(trifluoromethyl)phenyl)amino)cyclohexyl) isoquinolin-4-formamide]	< 10
O=C(c1cc(Br)cc([N+](=O)[O-])c1N[C@@H]1CCCN(C(=O)c2cncc3ccccc23)C1)N1CCNCC1 [Example 10]	10 to 50
O=C(c1cc(Br)cc([N+](=O)[O-])c1N[C@@H]1CCCN(C(=O)c2cnnc3ccccc23)C1)N1CCCCC1 [Example 11, (R)-(5-bromo-2-((1-(4-cinnolin-carbonyl)piperidin-3-yl)amino)-3-nitrophenyl)(piperidin-1-yl)methanone]	50 to 100
